Laboratory results published in US5972963A, “3-aryl-2-(1-substituted 4-piperidinyl)-1,1-dioxo-3H-benzo[D]isothiazoles and related compounds” (Hoechst Marion Roussel, Inc., priority 1997, dated 1999).
Structures can show the parent of a compound that is named as a salt. Where two headings read alike, the source gives them in different places.

Columns and labels:
dopamine (DA) uptake = settings: cited from earlier work
[1] = system: norepinephrine (NE) uptake; settings: literature; cited from earlier work
[2] = system: dopamine (DA) uptake, rat striatal synaptosomes; assay: Inhibition of ^3 H-Dopamine Uptake in Rat Striatal Synaptosomes; format: biochemical; settings: at 3.16 μmn; head: whole brain synaptosomes, protocol: striatal synaptosomes
Method: Inhibition of ^3 H-Dopamine Uptake in Rat Striatal Synaptosomes
this assay is used to show differential drug effects on dopamine uptake versus nerepppinephrine uptake and to identify therapeutic agents for diseases where the potentiation of dopaminergic activity may be helpful (e.g. Parkinson's Disease).
(§1) A. Animals: Male CR Wistar rats (100-125 g).
3. Dopamine HCl is obtained from Sigma Chemical Co. A 0.1 mM stock solution is made up in 0.01 N HCl. This is used to dilute the specific activity of radiolabeled 5 HT.
4. 3,4-[8-^3 H(N)]-Dihydroxyphenylethylamine (Dopamine), specific activity 4-34 Ci/mmol is obtained from New England Nuclear.
The final desired concentration of ^3 H-DA in the assay is 50 nM. The dilution factor is 0.9. Therefore, the KHBB is made up to contain 55.5 nM [^3 H]-5 DA.
(§2) 5. For most assays, a 1 mM stock solution of the test compound is made up in a suitable solvent and serially diluted such that the final concentration in the assay ranges from 2×10^-8 to 2×10^-5 M. Seven concentrations are used for each assay. Higher or lower concentrations may be used depending on the potency of the compound.
(§3) Male Wistar rats are decapitated and the brain rapidly removed. Corpora striata are rapidly removed, weighed and homogenized in 9 volumes of ice-cold 0.32 M sucrose using a Potter-Elvejhem homogenizer. Homogenization should be done with 4-5 up and down strokes at medium speeds to minimize synaptosome lysis. The homogenate is centrifuged at 1000 g for 10 minutes at 0°-4° C. The supernatant (S) is decanted and is used for uptake experiments.
(§4) 20 μl Vehicle or appropriate drug concentration
(§5) Tubes are incubated at 37° C. under a 95% O2 /5% CO2 atmosphere for 5 minutes. For each assay, 3 tubes are incubated with 20 μl of vehicle at 0° C. in an ice bath. After incubation all tubes are immediately centrifuged at 4000 g for 10 minutes. The supernatant fluid is aspirated and the pellets dissolved by adding 1 ml of solubilizer (Triton X-100+50% EtOH, 1:4 v/v). The tubes are vigorously vortexed, decanted into scintillation vials, and counted in 10 ml of Liquiscint scintillation counting cocktail. Active uptake is the difference between cpm at 37° C. and 0° C. The percent inhibition at each drug concentration is the mean of three determinations. IC50 values are derived from log-probit analysis.

[3] = system: serotonin (5HT) uptake, rat whole brain synaptosomes; assay: Inhibition of [^3 H]-Serotonin Uptake in Rat Whole Brain Synaptosomes; format: biochemical; settings: at 3.16 μmn
Method: Inhibition of [^3 H]-Serotonin Uptake in Rat Whole Brain Synaptosomes
This assay is used a biochemical screen for compounds which block serotonin (5 HT) uptake, which may be useful as antidepressants and for the treatment of personality disorders such as obsessive compulsive disorder.
as §1
3. Serotonin creatinine SO4 is obtained from Sigma Chemical Co. A 0.1 mM stock solution is made up in 0.01 N HCl. This is used to dilute the specific activity of radiolabeled 5 HT.
4. 5-[1,2-^3 H(N)]-Hydroxytryptamine creatinine sulfate (Serotonin), specific activity 20-30 Ci/mmol is obtained from New England Nuclear.
The final desired concentration of ^3 H-5 HT in the assay is 50 nM. The dilution factor is 0.8. Therefore, the KHBB is made up to contain 62.5 nM [^3 H]-5 HT.
as §2, with “mM” for “mM stock”, “in” for “in a”
as §3, with “Whole brain minus cerebella is” for “Corpora striata are rapidly removed,”, “(S1)” for “(S)”
800 μl KHBB +[^3 H]-5 HT.
as §4, §5

[4] = system: norepinephrine (NE) uptake, rat whole brain synaptosomes; assay: Inhibition of [^3 H]-Norepinephrine Uptake in Rat Whole Brain or Hypothalamic Synaptosomes; format: biochemical; settings: at 3.16 μmn
Method: Inhibition of [^3 H]-Norepinephrine Uptake in Rat Whole Brain or Hypothalamic Synaptosomes
This assay is used as a biochemical screen for potential antidepressants which block norepinephrine uptake.
as §1
3. L(-)-Norepinephrine bitartrate is obtained from Sigma Chemical Co. A 0.1 mM stock solution is made up in 0.01 N HCl. This is used to dilute the specific activity of theradiolabeled NE.
4. Levo-[Ring-2,5,6-^3 H]-Norepinephrine (40-50 Ci/mmol) is obtained from New England Nuclear.
The final desired concentration of [^3 H]-NE in the assay is 50 nM. The dilution factor is 0.8. Therefore, the KHBB is made up to contain 62.5 nM [^3 H]-NE.
as §2
as §3, with “removed. Either whole brain minus cerebella or hypothalamus is” for “removed. Corpora striata are rapidly removed,”, “lysis. TH” for “lysis. The”, “supernatant (S1)” for “supernatant (S)”
as §4
Tubes are incubated at 37° C., under a 95% O2 /5% CO2 atmosphere for 5 minutes. For each assay, 3 tubes are incubated with 20 μl of vehicle at 0° C. in a ice bath. After incubation all tubes are immediately centrifuged at 4000 g for 10 minutes. The supernatant fluid is aspirated and the pellets dissolved by adding 1 ml of solubilizaer (Triton X-100+50% EtOH, 1:4 v/v). The tubes are vigorously vortexed, decanted into scientillation vials, and counted in 10 ml of Liquiscint scintillation countering cocktail. Active uptake is the difference between cpm at 37° C. and 0C. The percent inhibition at each drug concentration is the mean of three determinations IC50 values are derived from log-probit analysis.

5 HT uptakes sites = settings: in vitro receptor binding, literature; cited from earlier work
serotonin (5 HT) uptake = settings: literature; cited from earlier work

SMILES | DA uptake inhibition (dopamine (DA) uptake; literature) | NE uptake inhibition [1] | % inhibition DA [2] [%] | % inhibition 5HT [3] [%] | % inhibition NE [4] [%] | other results
COC(=O)[C@H]1[C@@H](OC(=O)c2ccccc2)C[C@@H]2CC[C@H]1N2C [cocaine] | potently inhibited | potently inhibited | – | – | – | –
CC(COc1ccccc1)N(CCCl)Cc1ccccc1 (centres unmarked) [phenoxybenzarrine] | – | also inhibited | – | – | – | –
C[C@@H]1O[C@@H](O[C@H]2C[C@@H](O)[C@]3(CO)[C@H]4[C@H](O)C[C@]5(C)[C@@H](C6=CC(=O)OC6)CC[C@]5(O)[C@@H]4CC[C@]3(O)C2)[C@H](O)[C@H](O)[C@H]1O [ouabain] | – | also inhibited | – | – | – | DA uptake inhibition (dopamine (DA) uptake): potently inhibited
C[C@@H](N)Cc1ccccc1 [1-amphetamine] | no stereo selectivity for the inhibition of DA uptake | – | – | – | – | –
CNCCCN1c2ccccc2CCc2ccccc21 [desipramine] | – | more active than the tertiary amines (e.g. imipramine) | – | – | – | –
C[C@H](N)Cc1ccccc1 [d-amphetamine] | no stereo selectivity for the inhibition of DA uptake | – | – | – | – | –
CC(NC(C)(C)C)C(=O)c1cccc(Cl)c1 (centres unmarked) [bupropion] | inhibit DA uptake | – | – | – | – | –
COc1cc(C(C)=O)ccc1OCCCN1CCC(N2C(c3ccc(Cl)cc3)c3ccccc3S2(=O)=O)CC1 (centres unmarked) [1-[4-(3-{4-[3-(4-Chlorophenyl)-1,1-dioxo-3H-benzo[d]isothiazol-2-yl]-1-piperidin-1-yl}-propoxy)-3-methoxyphenyl]-ethanone maleate] | – | – | 67.94 | 48.78 | 55.23 | –
O=C(O)/C=C\C(=O)O.O=S1(=O)c2ccccc2C(c2ccc(Cl)cc2)N1C1CCN(CCO)CC1 (centres unmarked) [2-{4-[3(4-Chlorophenyl)-1,1-dioxo-3H-benzo[d]isothiazol-2-yl]-piperidin-1-yl}-ethanol maleate] | – | – | 18.71 | 3.68 | 8.71 | –
O=C(O)/C=C\C(=O)O.O=C1c2ccccc2C(=O)N1CCCN1CCC(N2C(c3ccc(Cl)cc3)c3ccccc3S2(=O)=O)CC1 (centres unmarked) [2-(3-{4-[3-(4-Chlorophenyl)-1,1-dioxo-3H-benzo[d]isothiazol-2-yl]piperidin-1-yl}propyl)-isoindol-1,3-dione maleate] | – | – | 57.36 | 29.02 | 28.37 | –
CN(C)CCCN1c2ccccc2CCc2ccccc21 [[^3 H]-imipramine] | – | – | – | – | – | labelling of 5 HT uptake sites (5 HT uptakes sites): labels 5 HT uptakes sites
Cl.O=S1(=O)c2ccccc2C(c2ccc(F)cc2)N1C1CCNCC1 (centres unmarked) [3-(4-Fluorophenyl)-2-(4-piperidinyl)-2,3-dihydrobenzo[d]isothiazole-1,1-dioxide hydrochloride] | – | – | 30.34 | 37.92 | 25.02 | –
CN(C)C/C=C(/c1ccc(Br)cc1)c1cccnc1 [zimelidine] | – | – | – | – | – | 5 HT uptake inhibition (serotonin (5 HT) uptake): fairly selective effects on 5 HT uptakes
